How the values were obtained:
Format in all cases: cell-based
[1] = Annexin V / SYTOX AADvanced flow cytometry of cell death states; conditions: human, read-out: viable cells (flow cytometry, Annexin V/SYTOX staining)
Protocol: (§1) The REM-I platform was used to obtain images of cells at different states of dying than one another. More specifically, live, viable Jurkat (T Lymphocyte), Clone E6-1 cells were cultured in RPMI-1640 medium (ThermoFisher Scientific) with 10% fetal bovine serum (FBS) at 37° C. with 5% CO2. A suspension of the cells was prepared at a concentration of 2×10^6 cells/mL for apoptosis and necrosis induction. The following treatments were used to induce cell death (e.g., via apoptosis or necrosis) in different samples of the suspension.
(§2) Sample 2: Camptothecin (ab120115, Abcam), a DNA topoisomerase inhibitor, was administered to the suspension of Jurkat cells at a final concentration of 10 μM and incubated at 37° C. with 5% CO2 for six hours to induce apoptosis by perturbing topoisomerase I.
(§3) Sample 3: Staurosporine (ab120056, Abcam), a protein kinase inhibitor, was administered to the suspension of Jurkat cells at a final concentration of 2 μM and incubated at 37° C. with 5% CO2 for either three hours or for eighteen hours to induce apoptosis by G2/M cell cycle arrest.
(§4) Following treatment, each of the samples was split into two aliquots, one for use in REM-I morphology profiling and one for use in flow cytometry assessment. For morphology profiling, treated cells at a concentration of 3×10^6 cells per mL in a single cell suspension were run on the REM-I platform with a flow rate of about 300 cells/second, and more than about 40,000 images were captured. The data suite 190, described with reference to FIG. 1, was trained using the multi-dimensional feature vectors from the cells and used to generate reduced-dimensionality plots which will be described with reference to FIGS. 16, 17, and 18. For flow cytometry, 1×10^6 treated cells in 100 μL were incubated with 5 μL of PACIFIC BLUE™ Annexin V stock (per manufacturer recommendation) and 1 μL of SYTOX™ AADVANCED™ (A35136, ThermoFisher) for 30 minutes at room temperature and then analyzed with the BD FACSMELODY™ cell sorter and BD FACSCHORUS™ software (BD Biosciences, California).

[2] = test system: Jurkat (T Lymphocyte), Clone E6-1 cells; experiment: as above
Protocol: as §1, §2, §3, §4

[3] = test system: Jurkat (T Lymphocyte), Clone E6-1 cells; experiment: REM-I label-free high-dimensional morphology profiling (UMAP); conditions: 10 μM camptothecin, 6 hours, unstained brightfield images
Protocol: as §1
Sample 2: Camptothecin (ab120115, Abcam), a DNA topoisomerase inhibitor, was administered to the suspension of Jurkat cells at a final concentration of 10 μM and incubated at 37° C. with 5% CO2 for six hours to induce apoptosis by perturbing topoisomerase I. […]
Following treatment, each of the samples was split into two aliquots, one for use in REM-I morphology profiling and one for use in flow cytometry assessment. […] For flow cytometry, 1×10^6 treated cells in 100 μL were incubated with 5 μL of PACIFIC BLUE™ Annexin V stock (per manufacturer recommendation) and 1 μL of SYTOX™ AADVANCED™ (A35136, ThermoFisher) for 30 minutes at room temperature and then analyzed with the BD FACSMELODY™ cell sorter and BD FACSCHORUS™ software (BD Biosciences, California).

[4] = 2 μM staurosporine, eighteen hours
[5] = 2 μM staurosporine, three hours

Compound	viability at 3 h, 2 μM ([1]; Jurkat cells, 2 μM staurosporine, three hours) [%]	dead cells (flow cytometry, Annexin V/SYTOX staining) [2, 4] [%]	necrotic cells (flow cytometry, Annexin V/SYTOX staining) [2, 4] [%]	apoptotic cells (flow cytometry, Annexin V/SYTOX staining) [2, 5] [%]	dead cells (flow cytometry, Annexin V/SYTOX staining) [2, 5] [%]	necrotic cells (flow cytometry, Annexin V/SYTOX staining) [2, 5] [%]	viability at 6 h, 10 μM ([1]; Jurkat (T lymphocyte), Clone E6-1 cells, 10 μM camptothecin, six hours, 37° C.) [%]	apoptotic cells (flow cytometry, Annexin V/SYTOX staining) ([2]; 10 μM camptothecin, six hours, 37° C.) [%]	morphological profile on UMAP compared to healthy cells of Sample 1 [3]
CN[C@@H]1C[C@H]2O[C@@](C)([C@@H]1OC)n1c3ccccc3c3c4c(c5c6ccccc6n2c5c31)C(=O)NC4 [staurosporine, Staurosporine]	14.5	12.4	85.0	6.96	14.1	64.5			
CC[C@@]1(O)C(=O)OCc2c1cc1n(c2=O)Cc2cc3ccccc3nc2-1 [Sample 2, Camptothecin]							71	28.7	morphological shift in the main population
